This assay has as its system Hedgehog signaling pathway. As to the kind of experiment: Gli-Luc luciferase reporter gene assay in C3H10T1/2/Gli-Luc cells under Shh-N stimulation. The class given is cell-based. Particulars: Mus musculus, C3H 10T1/2, 24 h, luciferase RLU, read-out: biological activity: IC50 of the inhibitory activities of compounds on the hedgehog pathway. Summed up: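 C3H10T1/2 cells stably carrying a Gli-responsive luciferase reporter were stimulated with 30 nM Shh-N conditioned medium plus compound (7-point dilutions, duplicate) for 24 h at 37 °C. Luciferase luminescence read from lysates; IC50 by sigmoidal fit of RLU versus log concentration.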
`COc1c(-c2cnc(N3C[C@@H](C)O[C@@H](C)C3)nc2)cnc2c(-c3ccc(C#N)cc3)cccc12` [Embodiment 176, 4-(3-(2-((2S,6R)-2,6-dimethylmorpholino)pyrimidin-5-yl)-4-methoxyquinolin-8-yl) benzonitrile]: the IC50 (commonly the concentration that inhibits the measured activity by half) is at most 50 nM. To `Cc1nc(N2C[C@@H](C)O[C@@H](C)C2)ccc1-c1cnc2c(-c3ccc(C#N)cc3)cccc2c1C1CC1` [Embodiment 257, 4-(4-cyclopropyl-3-(6-((2S,6R)-2,6-dimethylmorpholino)-2-methylpyridin-3-yl)quinolin-8-yl)benzonitrile] belongs at most 50 nM; to `Cc1cn(-c2ccc(N3CC(C)NC(C)C3)cc2)c(=O)c2cccc(-c3ccc(C#N)cc3)c12` (stereo not shown) [Embodiment 15], 100 to 500 nM; to `COc1c(-c2ccc(N3C[C@@H](C(C)(C)O)O[C@@H](C)C3)cc2)cnc2c(-c3ccc(C#N)cc3)cccc12` [Embodiment 192, 4-(3-(4-((2S, 6S)-2-(2-hydroxypropan-2-yl)-6-methylmorpholino)phenyl)-4-methoxyquinolin-8-yl)benzonitrile], at most 50 nM.

As for `COc1c(N2CCN(C(=O)Nc3cccc(C)c3)CC2)cnc2c(-c3ccc(C#N)cc3)cccc12` [Embodiment 211], the IC50 was at most 50 nM. To `COc1c(-c2ccc(N3C[C@@H](C)O[C@@H](C)C3)nc2)cnc2c(NC(=O)C(C)(C)C)cccc12` [Embodiment 117, N-(3-(6-((2S,6R)-2,6-dimethylmorpholino)pyridin-3-yl)-4-methoxyquinolin-8-yl) pivalamide] belongs 1000 to 5000 nM. To `COc1c(-c2ccc(N3C[C@@H](C)O[C@@H](C)C3)nc2)cnc2c(-c3ccc(OC(F)(F)F)cc3)cccc12` [Embodiment 160] belongs at most 50 nM; to `C[C@@H]1CN(c2ccc(-c3cnc4c(-c5ccc(C#N)cc5)cccc4c3OC(F)F)cc2)C[C@H](C)O1` [Embodiment 145], at most 50 nM.

Regarding `Cc1cn(-c2ccc(N3CC(C)N(C)C(C)C3)cc2)c(=O)c2cccc(-c3ccc(C#N)cc3)c12` (stereo not shown) [Embodiment 33, 4-(4-methyl-1-oxo-2-(4-(3,4,5-trimethylpiperazin-1-yl)phenyl)-1,2-dihydroisoquinolin-5-yl)benzonitrile], the half-inhibitory concentration (IC50) lay within 100 to 500 nM. To `COc1c(-c2ccc(N3C[C@@H](C)N(C(=O)C(C)N)[C@@H](C)C3)nc2)cnc2c(-c3ccc(C#N)cc3)cccc12` (stereo partly shown) [Embodiment 199] belongs 100 to 500 nM. To `C[C@@H]1CN(c2ccc(-c3cnc4c(-c5ccc(C#N)cc5)cccc4c3C3=CCCC3)cn2)C[C@H](C)O1` [Embodiment 260] belongs 100 to 500 nM. Under `COc1c(N2CCN(S(=O)(=O)C(C)C)CC2)cnc2c(-c3ccc(C#N)cc3)cccc12` [Embodiment 249, 4-(4-methoxy-3-(4-(propane-2-sulfonyl)piperazin-1-yl)-quinolin-8-yl)benzonitrile] stands at most 50 nM; under `CC(C)(O)c1ccc(N2CCN(c3cnc4c(-c5ccc(C#N)cc5)cccc4c3C3CC3)CC2=O)nc1` [Embodiment 236, 4-(4-cyclopropyl-3-(4-(5-(1-hydroxy-1-methyl-ethyl)pyridin-2-yl)-3-oxo-piperazin-1-yl)quinolin-8-yl)benzonitrile], at most 50 nM; under `Cc1cn(-c2ccc(N3C[C@@H](C)O[C@@H](C)C3)cc2)c(=O)c2ccnc(-c3ccc(C#N)cc3)c12` [Embodiment 81, 4-(6-(4-((2S,6R)-2,6-dimethylmorpholino)phenyl)-8-methyl-5-oxo-5,6-dihydro-2,6-naphthyridin-1-yl)benzonitrile], 1000 to 5000 nM. As to `Cc1cn(-c2ccc(N3CC4CC3CO4)cc2)c(=O)c2cccc(-c3ccc(C#N)cc3)c12` (stereo not shown) [Embodiment 6], the IC50 lay in the range of 500 to 1000 nM. In the case of `COc1c(-c2ccc(C(=O)N3C[C@@H](C)O[C@@H](C)C3)s2)cnc2c(-c3ccc(C#N)cc3)cccc12` [Embodiment 178, 4-(3-(5-((2S,6R)-2,6-dimethylmorpholine-4-carbonyl)thiophen-2-yl)-4-methoxyquinolin-8-yl)benzonitrile], the IC50 lay within 100 to 500 nM.

Turning to `CNC(=O)N1C(C)CN(c2ccc(-n3cc(C)c4c(-c5ccc(C#N)cc5)cccc4c3=O)cc2)CC1C` (stereo not shown) [Embodiment 30], the IC50 fell in the range of 100 to 500 nM.

With `Cc1cn(-c2ccc(N3CC(C)N(c4nccs4)C(C)C3)cc2)c(=O)c2cccc(-c3ccc(C#N)cc3)c12` (stereo not shown) [Embodiment 38], the IC50 is at most 50 nM. To `COc1c(N2CCN(C(=O)CC3CCOCC3)CC2)cnc2c(-c3ccc(C#N)cc3)cccc12` [Embodiment 216] belongs 100 to 500 nM; to `Cc1cn(-c2ccc(N3C[C@@H](C)O[C@@H](C)C3)cc2)c(=O)c2cccc(-c3ccc(C#N)cc3F)c12` [Embodiment 60], 100 to 500 nM.

Take `Cc1cn(-c2ccc(N3C[C@@H](C)O[C@@H](C)C3)nc2)c(=O)c2cccc(-c3ccc(OC(F)(F)F)cc3)c12` [Embodiment 68]: the IC50 fell in the range of 1000 to 5000 nM. As for `COc1c(N2CCN(c3ccc(C(C)(C)O)cn3)C(=O)C2)cnc2c(-c3ccc(C#N)cc3)cccc12` [Embodiment 253, 4-(3-(4-(5-(2-hydroxypropan-2-yl)pyridin-2-yl)-3-oxopiperazin-1-yl-4-methoxyquinolin-8-yl))benzonitrile], the IC50 is 100 to 500 nM. For `COc1c(-c2ccc(N3C[C@@H](C)O[C@@H](C)C3)cc2)cnc2c(-c3ccc4c(c3)OCO4)cccc12` [Embodiment 109], the IC50 lay in the range of 50 to 100 nM. To `COc1c(-c2ccc(N3C[C@@H](C)O[C@@H](C)C3)cc2)c(C(F)(F)F)nc2c(-c3ccc(C#N)cc3)cccc12` [Embodiment 141, 4-(3-(4-((2S,6R)-2,6-dimethylmorpholino)phenyl)-4-methoxy-2-(trifluoromethyl)quinolin-8-yl)benzonitrile] belongs 100 to 500 nM; to `Cc1cn(-c2ccc(N3C[C@@H](C)O[C@@H](C)C3)cc2)c(=O)c2cccc(-c3cncnc3)c12` [Embodiment 54], 1000 to 5000 nM; to `COc1c(C2CCC(N3C[C@@H](C)O[C@@H](C)C3)CC2)cnc2c(-c3ccc(C#N)cc3)cccc12` (stereo partly shown) [Embodiment 232, 4-(3-(4-(2,6-dimethylmorpholino-4-yl)cyclohexyl)-4-methoxyquinolin-8-yl) benzonitrile], 100 to 500 nM. To `Cc1cn(-c2ccc(N3C[C@@H](C)O[C@@H](C)C3)cc2)c(=O)c2cccc(-c3ccc(C4CC4)cc3)c12` [Embodiment 69, 5-(4-cyclopropylphenyl)-2-(4-((2R,6S)-2,6-dimethylmorpholino)phenyl)-4-methylisoquinolin-1(2H)-one] belongs 500 to 1000 nM; to `CCN1C(C)CN(c2ccc(-n3cc(C)c4c(-c5ccc(C#N)cc5)cccc4c3=O)cc2)CC1C` (stereo not shown) [Embodiment 34], 100 to 500 nM. For `COc1c(-c2ccc(N3C[C@@H](C)N(C(=O)c4cccnc4)[C@@H](C)C3)cc2)cnc2c(-c3ccc(C#N)cc3)cccc12` [Embodiment 200], the IC50 was at most 50 nM. Take `C[C@@H]1CN(c2ccc(-c3cnc4c(-c5ccc(C#N)cc5)cccc4c3C3CC3)c(C(=O)O)n2)C[C@H](C)O1` [Embodiment 239, 3-(8-(4-cyanophenyl)-4-cyclopropylquinolin-3-yl)-6-(2,6-dimethylmorpholino-4-yl)pyridin-2-carboxylic acid]: the IC50 lay in the range of 100 to 500 nM. To `Cc1cn(-c2ccc(N3CC(C)N(C(=O)OC(C)(C)C)C(C)C3)cc2)c(=O)c2cccc(-c3ccc(C#N)cc3)c12` (stereo not shown) [Embodiment 16] belongs 100 to 500 nM; to `COc1c(-c2ccc(N3C[C@@H](C)O[C@@H](C)C3)nc2)cnc2c(-c3ccc(S(C)(=O)=O)cc3)cccc12` [Embodiment 161], at most 50 nM. Consider `Cc1cn(-c2ccc(N3C[C@@H](C)O[C@@H](C)C3)cc2)c(=O)c2cccc(-c3ccc(C#N)cn3)c12` [Embodiment 55], for which the half-maximal inhibitory concentration (IC50) is 1000 to 5000 nM.

For `C[C@@H]1CN(c2ccc(-c3cnc4c(-c5ccc(C#N)cc5)cccc4c3N3CCC3)cn2)C[C@H](C)O1` [Embodiment 139, 4-(4-(azetidin-1-yl)-3-(6-((2S,6R)-2,6-dimethylmorpholino)pyridin-3-yl)quinolin-8-yl) benzonitrile], the IC50 fell in the range of 50 to 100 nM. To `Cc1cn(-c2ccc(N3CC(C)N(C(=O)C4CC4)C(C)C3)cc2)c(=O)c2cccc(-c3ccc(C#N)cc3)c12` (stereo not shown) [Embodiment 26] belongs 50 to 100 nM; to `COc1c(-c2ccc(N3CC(C)OC(C)C3)cc2)cnc2c(-c3ccc(C#N)cc3)cc(F)cc12` (stereo not shown) [Embodiment 136, 4-(3-(4-(2,6-dimethylmorpholino)phenyl)-6-fluoro-4-methoxyquinolin-8-yl) benzonitrile], 50 to 100 nM; to `Cc1cn(-c2ccc(N3C[C@@H](C)O[C@@H](C)C3)cc2)c(=O)c2cccc(-c3cccn3C)c12` [Embodiment 48], 1000 to 5000 nM.

As for `COc1c(N2CC(N3C[C@@H](C)O[C@@H](C)C3)C2)cnc2c(-c3ccc(C#N)cc3)cccc12` [Embodiment 228, 4-(3-(3-(2,6-dimethylmorpholino-4-yl)azetidin-1-yl)-4-methoxyquinolin-8-yl) benzonitrile], the IC50 was 100 to 500 nM.

As to `COc1cccc(N2CCN(c3ccc(-n4cc(C)c5c(-c6ccc(C#N)cc6)cccc5c4=O)cc3)CC2(C)C)c1` [Embodiment 5], the IC50 was 100 to 500 nM. For the molecule `C[C@@H]1CN(c2ccc(-c3cnc4c(-c5ccc(C#N)cc5)cccc4c3C3CCC3)cn2)C[C@H](C)O1` [Embodiment 259, 4-(4-cyclobutyl-3-(6-((2S,6R)-2,6-dimethylmorpholino)pyridin-3-yl)quinolin-8-yl) benzonitrile], the IC50 was 50 to 100 nM. Under `C[C@@H]1CN(c2ccc(-c3cnc4c(-c5ccc(C#N)cc5)cccc4c3C3CC3)cn2)C[C@H](C)O1` [Embodiment 134] stands at most 50 nM; under `COc1c(N2CCN(c3cnc(C(C)(C)O)cn3)CC2)cnc2c(-c3ccc(C#N)cc3)cccc12` [Embodiment 221], at most 50 nM; under `C[C@@H]1CN(c2ccc(-c3cnc4c(-c5ccccn5)cccc4c3C3CC3)cc2)C[C@H](C)O1` [Embodiment 263, (2S,6R)-4-(5-(4-8-cyclopropyl-(2-pyridinyl)quinolin-3-yl)pyridin-2-yl)-2,6-dimethylmorpholine], at most 50 nM.

Values taken from patent publication US9938292B2 (GUANGDONG ZHONGSHENG PHARMACEUTICAL CO., LTD, priority 2014, dated 2018).
